Test results reported in patent publication US20060122165A1, “Crystalline cefdinir” (priority 2004, published 2006).

Tests used:
[1] = conversion of crystalline form B into form C on exposure to humidity or aqueous medium; type: physicochemical
From the text: In another aspect of the invention, crystalline form C of cefdinir can be obtained by conversion of the crystalline form B of cefdinir, obtainable as described in US 2003/0204082 in Example 1, into crystalline form C of cefdinir. Cefdinir form B is in the form of a hydrate.
The equilibrating procedure of step a′) is preferably performed at a relative humidity of about 63% to about 75% , more preferably of about 65% to about 70%, such as of at 65% to 70%. Said equilibration may be performed in a gaseous atmosphere being e.g. air or nitrogen, preferably air having the above mentioned relative humidity. Above about 63% relative humidity, for example cefdinir form B crystals obtainable as described above convert to form C crystals. Form C crystals—once formed—are stable above a relative humidity of at least 45%.

[2] = stability of crystalline form at environmental relative humidity; type: physicochemical; settings: form maintained as trihydrate

SMILES | relative humidity above which crystals convert to form C ([1]; equilibration in gaseous atmosphere (air or nitrogen)) | time for conversion into crystalline form C ([1]; exposure of pure crystalline form B to a relative humidity of at least about 65%) | time for conversion into crystalline form C ([1]; exposure of pure form B crystals to an aqueous suspending medium, preferably water) | relative humidity of environmental conditions at which the crystal form is stable [2]
C=CC1=C(C(=O)O)N2C(=O)C(NC(=O)C(=NO)c3csc(N)n3)[C@H]2SC1 (stereo partly shown) [crystalline form B of cefdinir, 7-[2-(2-aminothiazol-4-yl)-2-hydroxyiminoacetamido]-3-vinyl-3-cephem-4-carboxylic acid] | Above 63% | within minutes | within seconds | 
C=CC1=C(C(=O)O)N2C(=O)C(NC(=O)C(=NO)c3csc(N)n3)[C@H]2SC1.O.O.O (stereo partly shown) [crystalline form C of cefdinir, 7-[2-(2-aminothiazol-4-yl)-2-hydroxyiminoacetamido]-3-vinyl-3-cephem-4-carboxylic acid trihydrate] |  |  |  | at least 45%
